Experimental findings from patent US9493420B2, “Quinoline derivatives and uses thereof” (Portland State University, priority 2005, dated 2016) are described below.

Data set [1] in a line: Heme binding by UV-VIS spectrophotometric titration (association constant). Conditions: pH 5.7; heme assumed dimeric (μ-oxo). From the text:
Optionally, heme binding of RCQ compounds can be determined by any method known in the art, including, for example, spectrophotometric methods, like UV-VIS spectroscopy or NMR spectroscopy. Methods of measuring heme binding to a variety of molecules using the UV-VIS spectrum have been described (see, e.g., Xu et al., J. Inorg. Biochem., 86 (2-3):617-625, 2001; Xu et al., Antimicrob. Agents Chemother., 46(1):144-150, 2002). Generally, a heme-binding compound (such as a disclosed RCQ) is mixed in increasing concentration with heme (or a heme model compound, such as porphyrin or metalloporphyrin) and the absorbance spectrum is measured from the ultraviolet region well into the visible region (from about 300 nm to about 750 nm). This spectral range includes the so-called Soret and Q-band regions that arise from porphyrin or metalloporphyrin absorbance. Upon interaction between a heme-binding compound and heme (or a heme model compound, such as porphyrin or metalloporphyrin), decreased absorbance in the Soret region is observed. […]
In particular examples, the formation of heme-RCQ complexes can be determined by UV-VIS spectrophotometric titration, using a variety of commercially available spectrophotometers (such as a Varian-Cary 3E spectrophotometer). […] Optionally, pH can be monitored throughout the procedure to ensure that it remains unchanged. […]

Data set [2] deals with mitogen-induced murine spleen lymphocytes. It counts as cell-based. Conditions: mouse spleen lymphocytes. Here is the method: Mouse spleen lymphocytes were isolated from C57B1/6J mice by teasing tissues on a metallic sieve screen. […] Two hundred (200) μl isolated cells were then seeded in separate wells of a 96-well flat-bottom tissue culture plate at a density of 2×10^5 cells per well. […] After 72 hours incubation in a humidified atmosphere at 37° C. and 5% CO2, a solution of resazurin PBS was added to a final concentration 10 μM, and the plates were returned to the incubator for another 24 hours. Resazurin is a substrate which changes color in response to metabolic activity (such as, living cells). […] LC50 values were determined from plots of florescence versus drug concentration using non-linear regression by Prism software.

For `CN(CCCNc1ccnc2cc(Cl)ccc12)CCCN1c2ccccc2CCc2ccccc21` [RCQ_02, N′-(7-Chloro-quinolin-4-yl)-N-[3-(10,11-dihydro-dibenzo[b,f]azepin-5-yl)-propyl]-N-methyl-propane-1,3-diamine], in data set [1], the heme2.RCQ_02 association constant result is recorded as “approximately 7.5×10^5 M^−1”. Moreover, the “Cytotoxicity” value in data set [2] (LC50, 72 hours + 24 hours resazurin) worked out at 700 nM. This molecule also returned a cytotoxicity values in data set [2] (Table 14) of 700 nM.
